# How the values were obtained:
# [1] = system: phosphorylation of the ribosomal protein S6 in MEF cells; test: rpS6 phosphorylation in MEF cells (ELISA and Western blotting), read-out for mTOR pathway activity; format: cell-based, mouse; conditions: 60 minutes incubation
# Description: These assays are used to test the effect of a compound on the activity of the mTOR pathway. Phosphorylation of ribosomal protein rp60 is used as read-out for mTOR pathway activity. […] Thus, these assays mimic a disease causative mechanism.
# MEFs are mouse embryo fibroblasts derived from TSC2 knockout (MEF110) and TSC2+ (MEF157) mice. Tsc2 mutations are known to cause tuberous sclerosis and lymphangioleiomyomatosis in humans.
# All cells were maintained in DMEM tissue culture medium, with the addition of fetal calf serum to 10% to support cell proliferation, at 37° C. and 5% CO2.
# In MEFs, ribosomal protein S6, which is a component of the 40S ribosome, and phosphorylated at Ser236 by p70 S6 kinase can be assayed by ELISA and Western blotting, using phospho-specific antibodies which detect both the human and the mouse forms of rpS6. This assay is predicitve of compounds with protective or therapetic activities for respiratory and vascular diseases, fibrotic diseases, or neurodegenerative diseases.
# Cells were grown to 60-80% confluence in DMEM+10% serum. Medium was replaced with fresh serum free medium two hours before addition of test compound of the invention.
# Compound was added as a 1:1000 dilution of the stock solution in DMSO. DMSO was added as a vehicle control, and samples were incubated for a further 60 minutes. […]
# [2] = system: phosphorylation of the ribosomal protein S6 in 621-101 cells; test: rpS6 phosphorylation in 621-101 cells (ELISA and Western blotting), read-out for mTOR pathway activity; format: cell-based, human; conditions: 60 minutes incubation
# Procedure: These assays are used to test the effect of a compound on the activity of the mTOR pathway. Phosphorylation of ribosomal protein rp60 is used as read-out for mTOR pathway activity. […] Thus, these assays mimic a disease causative mechanism. 621-101 cells are human cells derived from an angiomyolipoma. They have verified TSC2 mutations and are the only disease-derived mutation-bearing cells used that are mimicking the disease Lymphangioleiomyomitosis. Cells were grown to 60-80% confluence in DMEM+10% serum. Medium was replaced with fresh serum free medium two hours before addition of test compound of the invention. Compound was added as a 1:1000 dilution of the stock solution in DMSO. DMSO was added as a vehicle control, and samples were incubated for a further 60 minutes. For ELISA, cells were harvested into 200 ul cell lysis buffer containing both protease and phosphatase inhibitors, to protect the phosphorylation status of rpS6. Lysates were stored at −80° C. prior to use. 50 ul of lysate per sample was used for the ELISA, which was carried out according to manufacturers' instructions. For Western blotting, cells were harvested into 200 ul cell lysis buffer containing both protease and phosphatase inhibitors and resolved by SDS-PAGE before transfer to PVDF membrane and incubation with anti-phospho-rpS6 and anti-total-rpS6 antibodies.
structure (smiles),measurement,setting,value
"CC(=O)Oc1ccccc1C(=O)Nc1ncc([N+](=O)[O-])s1 [the compound of the invention, [2-[(5-nitro-1,3-thiazol-2-yl)carbamoyl]phenyl]ethanoate]",tolerability by the cells,[1],well tolerated
same,tolerability by the cells,[2],well tolerated
